Converted amounts (≈) assume the structure as drawn. Blank lines part the entries; values can stand above or below the compound they belong to.
How the values were obtained:
[1] = target: T1, Orexin/Hypocretin receptor type 1 (Homo sapiens, UniProt O43613); assay: Antagonist activity at human orexin 1 receptor expressed in HEK293 cells assessed as inhibition of orexin-induced calcium mobilization after 60 mins by FLIPR assay; format: functional, cell-based
T1 sequence (O43613 whole entry): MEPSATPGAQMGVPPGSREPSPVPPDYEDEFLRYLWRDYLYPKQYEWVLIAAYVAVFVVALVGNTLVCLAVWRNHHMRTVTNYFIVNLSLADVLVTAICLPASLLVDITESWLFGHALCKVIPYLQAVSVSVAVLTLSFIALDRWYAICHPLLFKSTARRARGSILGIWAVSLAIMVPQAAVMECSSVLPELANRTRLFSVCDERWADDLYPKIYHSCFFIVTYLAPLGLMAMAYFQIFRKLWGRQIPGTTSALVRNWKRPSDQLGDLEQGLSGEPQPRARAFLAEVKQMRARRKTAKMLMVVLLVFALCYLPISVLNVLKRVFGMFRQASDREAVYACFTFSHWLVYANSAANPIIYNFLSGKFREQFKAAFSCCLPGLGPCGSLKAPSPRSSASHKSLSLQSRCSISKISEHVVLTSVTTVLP

Orexin receptor type 2 = target: T2, Orexin receptor type 2 (Homo sapiens, UniProt O43614); assay: Antagonist activity at human orexin 2 receptor expressed in HEK293 cells assessed as inhibition of orexin-induced calcium mobilization after 60 mins by FLIPR assay; format: functional, cell-based
T2 sequence (O43614 whole entry): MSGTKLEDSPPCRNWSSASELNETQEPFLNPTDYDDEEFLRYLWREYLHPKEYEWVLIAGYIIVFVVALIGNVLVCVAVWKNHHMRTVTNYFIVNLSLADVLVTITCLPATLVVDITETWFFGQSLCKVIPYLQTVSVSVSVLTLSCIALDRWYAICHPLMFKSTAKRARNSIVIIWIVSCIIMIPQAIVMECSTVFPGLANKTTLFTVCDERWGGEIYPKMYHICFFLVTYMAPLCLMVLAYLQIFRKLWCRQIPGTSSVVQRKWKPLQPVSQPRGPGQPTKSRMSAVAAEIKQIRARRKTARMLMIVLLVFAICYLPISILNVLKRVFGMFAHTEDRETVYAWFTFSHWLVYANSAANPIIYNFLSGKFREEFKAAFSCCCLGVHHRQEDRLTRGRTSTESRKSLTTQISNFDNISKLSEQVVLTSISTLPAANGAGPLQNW

[2] = target: Voltage-gated inwardly rectifying potassium channel KCNH2 (Homo sapiens, UniProt Q12809); assay: Inhibition of human ERG
Rattus norvegicus [3] = assay: Sleep promoting activity in Sprague-Dawley rat assessed as decrease in active wake time at 30 mg/kg, po measured over 2 hrs by electroencephalogram method; format: functional
[4] = Ratio of drug level in brain to plasma in Sprague-Dawley rat at 10 mg/kg, po at 1 hr; format: ADME, organism-based; conditions: read-out: BPR
Rattus norvegicus [5] = assay: Sleep promoting activity in Sprague-Dawley rat assessed as effect on rapid eye movement sleep time at 30 mg/kg, po measured over 2 hrs by electroencephalogram method; format: functional
Rattus norvegicus [6] = assay: Sleep promoting activity in Sprague-Dawley rat assessed as effect on rapid eye movement sleep time at 90 mg/kg, po measured over 2 hrs by electroencephalogram method; format: functional
Brain [7] = assay: Drug uptake in Sprague-Dawley rat brain at 10 mg/kg, po at 4 hrs; format: ADME, organism-based; conditions: in vivo
[8] = Plasma concentration in Sprague-Dawley rat at 10 mg/kg, po at 0.3 hrs; format: ADME, organism-based
[9] = Ratio of drug level in brain to plasma in Sprague-Dawley rat at 10 mg/kg, po at 0.5 hrs; format: ADME, organism-based; conditions: read-out: BPR
[10] = Tmax in Sprague-Dawley rat at 15 mg/kg, po; format: ADME, organism-based; conditions: in vivo
[11] = Oral bioavailability in Sprague-Dawley rat at 15 mg/kg; format: ADME, organism-based; conditions: in vivo
Rattus norvegicus [12] = assay: Sleep promoting activity in po dosed Sprague-Dawley rat assessed as decrease in active wake time measured over 2 hrs by electroencephalogram method; format: functional, organism-based
[13] = Ratio of drug level in brain to plasma in Sprague-Dawley rat at 10 mg/kg, po at 4 hrs; format: ADME, organism-based; conditions: read-out: BPR
Rattus norvegicus [14] = assay: Sleep promoting activity in po dosed Sprague-Dawley rat assessed as increase in slow wave sleep time measured over 2 hrs by electroencephalogram method; format: functional, organism-based
[15] = Clearance in Sprague-Dawley rat at 2 mg/kg, iv; format: ADME, organism-based; conditions: in vivo
Brain [16] = assay: Drug uptake in Sprague-Dawley rat brain at 10 mg/kg, po at 1 hr; format: ADME, organism-based; conditions: in vivo
[17] = Thermodynamic solubility of the compound in phosphate buffer at pH 7.4 by HPLC method; format: physicochemical; conditions: read-out: Therm_solubility
Rattus norvegicus [18] = assay: Sleep promoting activity in Sprague-Dawley rat assessed as increase in slow wave sleep time at 90 mg/kg, po measured over 2 hrs by electroencephalogram method; format: functional
[19] = Cmax in Sprague-Dawley rat at 15 mg/kg, po; format: ADME, organism-based; design: dose 15 mg/kg, route oral; conditions: in vivo
Rattus norvegicus [20] = assay: Sleep promoting activity in Sprague-Dawley rat assessed as increase in slow wave sleep time at 30 mg/kg, po measured over 2 hrs by electroencephalogram method; format: functional
[21] = AUC in Sprague-Dawley rat at 15 mg/kg, po; format: ADME, organism-based; conditions: in vivo
[22] = Plasma concentration in Sprague-Dawley rat at 10 mg/kg, po at 4 hrs; format: ADME, organism-based
Brain [23] = assay: Drug uptake in Sprague-Dawley rat brain at 10 mg/kg, po at 0.3 hrs; format: ADME, organism-based; conditions: in vivo
Rattus norvegicus [24] = assay: Sleep promoting activity in Sprague-Dawley rat assessed as decrease in active wake time at 90 mg/kg, po measured over 2 hrs by electroencephalogram method; format: functional
[25] = Half life in Sprague-Dawley rat at 2 mg/kg, iv; format: ADME, organism-based; conditions: in vivo
[26] = Plasma concentration in Sprague-Dawley rat at 10 mg/kg, po at 1 hr; format: ADME, organism-based

Sequence of Voltage-gated inwardly rectifying potassium channel KCNH2 (Q12809 whole entry): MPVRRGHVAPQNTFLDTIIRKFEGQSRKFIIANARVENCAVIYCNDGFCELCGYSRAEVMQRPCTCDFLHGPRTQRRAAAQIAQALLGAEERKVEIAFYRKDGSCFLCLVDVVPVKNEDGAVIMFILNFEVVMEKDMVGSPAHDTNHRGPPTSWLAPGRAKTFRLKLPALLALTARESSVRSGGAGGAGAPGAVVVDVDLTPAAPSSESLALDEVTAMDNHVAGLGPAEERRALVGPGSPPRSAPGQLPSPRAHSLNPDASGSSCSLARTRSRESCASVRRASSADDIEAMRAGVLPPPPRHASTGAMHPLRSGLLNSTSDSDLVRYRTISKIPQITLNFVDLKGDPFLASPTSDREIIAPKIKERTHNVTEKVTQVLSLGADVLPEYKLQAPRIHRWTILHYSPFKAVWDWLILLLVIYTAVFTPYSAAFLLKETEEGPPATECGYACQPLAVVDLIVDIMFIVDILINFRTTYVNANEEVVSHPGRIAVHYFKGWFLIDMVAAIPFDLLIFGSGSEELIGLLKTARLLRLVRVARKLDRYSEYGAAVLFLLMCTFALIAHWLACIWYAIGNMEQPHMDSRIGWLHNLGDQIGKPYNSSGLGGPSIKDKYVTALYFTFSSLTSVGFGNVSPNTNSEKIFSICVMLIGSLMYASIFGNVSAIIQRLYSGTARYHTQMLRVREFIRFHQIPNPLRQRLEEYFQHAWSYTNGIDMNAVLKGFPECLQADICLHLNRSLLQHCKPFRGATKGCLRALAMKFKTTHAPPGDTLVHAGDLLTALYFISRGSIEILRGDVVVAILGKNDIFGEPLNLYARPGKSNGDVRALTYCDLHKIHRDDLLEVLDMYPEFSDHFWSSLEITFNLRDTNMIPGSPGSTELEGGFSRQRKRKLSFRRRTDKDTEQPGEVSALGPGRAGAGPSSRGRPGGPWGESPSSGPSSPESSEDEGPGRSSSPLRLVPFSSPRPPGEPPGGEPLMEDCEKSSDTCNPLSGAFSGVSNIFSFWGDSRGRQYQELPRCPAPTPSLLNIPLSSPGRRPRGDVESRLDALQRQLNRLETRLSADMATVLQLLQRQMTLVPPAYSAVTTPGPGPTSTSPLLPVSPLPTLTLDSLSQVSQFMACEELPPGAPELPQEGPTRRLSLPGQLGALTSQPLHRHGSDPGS

IC50 [1]: 736 nM
IC50 (Orexin receptor type 2): 1090 nM
SMILES: Cc1ccc(-n2nccn2)c(C(=O)N2CC3CN(c4nc5cc(Cl)ccc5o4)CC3(C)C2)c1 (stereo unspecified)

IC50 [1]: 759 nM
IC50 (Orexin receptor type 2): 639 nM
SMILES: Cc1ccc(-n2nccn2)c(C(=O)N2C[C@@]3(F)CN(c4nc5cc(Cl)ccc5o4)C[C@@]3(F)C2)c1
IC50 [2]: > 30 µM

IC50 [1]: 908 nM
IC50 (Orexin receptor type 2): 575 nM
SMILES: Cc1ccc(-n2nccn2)c(C(=O)N2C[C@@]3(F)CN(c4nc5ccccc5o4)C[C@@]3(F)C2)c1
IC50 [2]: > 30 µM

IC50 [1]: > 10000 nM
IC50 (Orexin receptor type 2): > 10000 nM
SMILES: Cc1ccc(-n2nccn2)c(C(=O)N2CC3CCN(c4nc5cc(Cl)ccc5o4)C3C2)c1 (stereo unspecified)

IC50 [1]: > 10000 nM
IC50 (Orexin receptor type 2): > 10000 nM
SMILES: Cc1ccc(-n2nccn2)c(C(=O)N2CC3CCCN(c4nc5cc(Cl)ccc5o4)C3C2)c1 (stereo unspecified)

Continued, compound first:

SMILES: Cc1ccc(-n2nccn2)c(C(=O)N2C[C@H]3CN(Cc4nc5cc(Cl)ccc5o4)C[C@H]3C2)c1
IC50 [1]: 3240 nM
IC50 (Orexin receptor type 2): 1820 nM

SMILES: O=C(c1ccccc1-n1nccn1)N1C[C@@H]2CN(c3nc4cc(Cl)ccc4o3)C[C@@H]2C1
IC50 [1]: 489 nM
IC50 (Orexin receptor type 2): 238 nM

SMILES: COc1ccc(-n2nccn2)c(C(=O)N2C[C@@H]3CN(c4nc5cc(Cl)ccc5o4)C[C@@H]3C2)c1
IC50 [1]: 517 nM
IC50 (Orexin receptor type 2): 387 nM

SMILES: O=C(c1cc(F)ccc1-n1nccn1)N1C[C@@H]2CN(c3nc4cc(Cl)ccc4o3)C[C@@H]2C1
IC50 [1]: 1960 nM
IC50 (Orexin receptor type 2): 791 nM

SMILES: Cc1ccc(-n2nccn2)c(C(=O)N2C[C@@H]3CN(c4nc5ccccc5o4)C[C@@H]3C2)c1
Time (Rattus norvegicus [3]): 25.7 min
Kp at 1 h [4]: 0.12
Time (Rattus norvegicus [5]): -0.1 min
Time (Rattus norvegicus [6]): 4.3 min
Drug uptake (Brain [7]): 22 nmol/kg
concentration at 0.3 h [8]: 8.79 µM
Kp at 0.5 h [9]: 0.13
Tmax [10]: 15 min
bioavailability [11]: 23%
Activity (Rattus norvegicus [12]): Dose-dependent effect
Kp at 4 h [13]: 0.06
Activity (Rattus norvegicus [14]): Dose-dependent effect
clearance [15]: 10 mL/min/kg
Drug uptake (Brain [16]): 429 nmol/kg
solubility thermodynamic [17]: 41 µM (≈ 17 µg/mL)
Time (Rattus norvegicus [18]): 36.9 min
Cmax [19]: 10.6 µM
Time (Rattus norvegicus [20]): 25.9 min
AUC [21]: 20.3 µM·h
concentration at 4 h [22]: 341 nM
IC50 [1]: 303 nM
Drug uptake (Brain [23]): 1134 nmol/kg
Time (Rattus norvegicus [24]): 41.1 min
half-life [25]: 114 min
IC50 (Orexin receptor type 2): 178 nM
concentration at 1 h [26]: 3.47 µM

SMILES: Cc1ccc(-n2nccn2)c(C(=O)N2C[C@@H]3CN(c4nc5cc(C)ccc5o4)C[C@@H]3C2)c1
IC50 [1]: 113 nM
IC50 (Orexin receptor type 2): 211 nM

SMILES: Cc1ccc(-n2nccn2)c(C(=O)N2C[C@@H]3CN(c4nc(-c5cccc(Cl)c5)co4)C[C@@H]3C2)c1
IC50 [1]: 1010 nM
IC50 (Orexin receptor type 2): 2790 nM

SMILES: O=C(c1cc(C(F)(F)F)ccc1-n1nccn1)N1C[C@@H]2CN(c3nc4cc(Cl)ccc4o3)C[C@@H]2C1
IC50 [1]: 5020 nM
IC50 (Orexin receptor type 2): 1040 nM

SMILES: O=C(c1cc(Cl)ccc1-n1nccn1)N1C[C@@H]2CN(c3nc4cc(Cl)ccc4o3)C[C@@H]2C1
IC50 [1]: > 10000 nM
IC50 (Orexin receptor type 2): 1270 nM

SMILES: COc1ccc2oc(N3C[C@H]4CN(C(=O)c5cc(C)ccc5-n5nccn5)C[C@H]4C3)nc2c1
IC50 [1]: 401 nM
IC50 (Orexin receptor type 2): 311 nM
